According to the Kinase Knowledgebase extract (Sharma et al. 2016):

target: CDK2 (human) (UniProt P24941); assay: Enzyme Assay

SMILES	Ki [nM]
Cc1cc(Nc2ccnc(Cc3ccc4c(=O)[nH][nH]c4c3)c2)n[nH]1	< 1000
Cc1cc(Nc2nc(Sc3ccc4c(=O)[nH][nH]c4c3)cc3ccccc23)n[nH]1	< 1000
O=c1[nH][nH]c2cc(Nc3ncnc(Nc4cc(C5CC5)[nH]n4)n3)ccc12	< 1000
O=c1[nH][nH]c2cc(Nc3ncc(-c4cccs4)c(Nc4cc(C5CC5)[nH]n4)n3)ccc12	< 1000
O=c1[nH][nH]c2cc(CCCC(Nc3cc(C4CC4)[nH]n3)c3ccccc3)ccc12 (stereo unspecified)	< 1000
COc1cccc2c(Nc3cc(C)[nH]n3)nc(Sc3ccc4c(=O)[nH][nH]c4c3)nc12	< 1000
Cc1cc(Nc2nc(COc3ccc4[nH][nH]c(=O)c4c3)nc3c2CCCC3)n[nH]1	< 1000
Cc1cc(Nc2cc(C)[nH]n2)nc(C2(c3ccc4c(=O)[nH][nH]c4c3)CC2)n1	< 1000
COc1ccc(-c2cc(Nc3cc(C)[nH]n3)nc(Oc3ccc4c(=O)[nH][nH]c4c3)n2)cc1	< 1000
C#Cc1c(-c2nc(Nc3n[nH]c(C)n3)c3ccccc3n2)ccc2[nH][nH]c(=O)c12	< 1000
O=c1[nH][nH]c2ccc(C3CCC(Nc4cc(C5CC5)[nH]n4)C3)cc12 (stereo unspecified)	< 1000
Cc1cc(Nc2ccnc(Nc3ccc4c(=O)[nH][nH]c4c3)c2)n[nH]1	< 1000
Cc1cnc(NC2CCC(Nc3ccc4c(=O)[nH][nH]c4c3)C2)s1 (stereo unspecified)	< 1000
Cc1cc(Nc2cc(-c3ccco3)[nH]n2)nc(COc2ccc3[nH][nH]c(=O)c3c2)n1	< 1000
Cc1cnc(Nc2cccc(Nc3ccc4c(=O)[nH][nH]c4c3)c2)s1	< 1000
Cc1cc(Nc2cccc(NCc3ccc4c(=O)[nH][nH]c4c3)n2)n[nH]1	< 1000
O=c1[nH][nH]c2cc(OC(CCNc3nccnn3)Cc3ccccc3)ccc12 (stereo unspecified)	< 1000
O=c1[nH][nH]c2cc(COCc3nc(Nc4cc(C5CC5)[nH]n4)c4ccccc4n3)ccc12	< 1000
O=c1[nH][nH]c2cc([C@@H]3C[C@H]3c3nc(Nc4n[nH]c5c(F)cccc45)c4ccccc4n3)ccc12	< 1000
Cc1cc(Nc2cc(-c3ccccc3)nc(Oc3ccc4c(=O)[nH][nH]c4c3)n2)n[nH]1	< 1000
Cc1cnc(NC2CCC(Cc3ccc4c(=O)[nH][nH]c4c3)C2)s1 (stereo unspecified)	< 1000
NCCc1cc(Nc2n[nH]c3ccccc23)nc(-c2ccc3[nH][nH]c(=O)c3c2C(F)(F)F)n1	< 1000
O=c1[nH][nH]c2cc(Oc3nc(Nc4cc(C5CC5)[nH]n4)cc(-c4ccccc4)n3)ccc12	< 1000
O=c1[nH][nH]c2cc(Nc3cc4ccccc4c(Nc4n[nH]c5ccccc45)n3)ccc12	< 1000

SMILES	Ki [nM]
O=c1[nH][nH]c2cc(Sc3nc(Nc4cc[nH]n4)c4ccccc4n3)ccc12	< 1000
Cn1cnc(NC2CCCC(Oc3ccc4c(=O)[nH][nH]c4c3)C2)c1 (stereo unspecified)	< 1000
O=c1[nH][nH]c2cc(CSc3cc(Nc4n[nH]c5ccccc45)c4ccccc4n3)ccc12	< 1000
O=c1[nH][nH]c2cc(NCCCNc3cc(C4CC4)[nH]n3)ccc12	< 1000
Cc1cc(Nc2cc(C(C)(C)OCCN(C)C)nc(Sc3ccc4c(=O)[nH][nH]c4c3)n2)n[nH]1	< 1000
O=c1[nH][nH]c2ccc(-c3nc4c(c(Nc5n[nH]c6ccccc56)n3)CCCC4)c(C(F)(F)F)c12	< 1000
Cc1cnc(NCCCSc2ccc3c(=O)[nH][nH]c3c2)s1	< 1000
O=C(CCNc1nccnn1)Cc1ccc2c(=O)[nH][nH]c2c1	< 1000
O=c1[nH][nH]c2cc(NCCC(Nc3ccccn3)c3ccccc3)ccc12 (stereo unspecified)	< 1000
O=c1[nH][nH]c2cc(NCCONc3ccccn3)ccc12	< 1000
Cc1cc(Nc2cc(Sc3ccc4c(=O)[nH][nH]c4c3)nc3ccccc23)n[nH]1	< 1000
O=c1[nH][nH]c2ccc(-c3nc(Nc4n[nH]c(C5CC5)n4)c4ccncc4n3)c(Cl)c12	< 1000
O=c1[nH][nH]c2ccc(-c3nc(Nc4n[nH]c5c(F)cc(F)cc45)c4cc(N5CCOCC5)ccc4n3)c(C(F)(F)F)c12	< 1000
Cc1cnc(NC2CCCC2CNc2ccc3c(=O)[nH][nH]c3c2)s1 (stereo unspecified)	< 1000
CSc1nc(Nc2ccc3c(=O)[nH][nH]c3c2)cc(Nc2cc(C3CC3)[nH]n2)n1	< 1000
O=c1[nH][nH]c2ccc(-c3cc(Nc4n[nH]c5c(F)cc(F)cc45)c4ccccc4n3)c(C(F)(F)F)c12	< 1000
O=c1[nH][nH]c2cc(Cl)c(-c3cc4ncccc4c(Nc4n[nH]c5ccccc45)n3)cc12	< 1000
O=C1CCc2c(nc(-c3ccc4[nH][nH]c(=O)c4c3)nc2Nc2n[nH]c3ccccc23)C1	< 1000
Cc1cnc(NC(=O)CC(=O)Oc2ccc3c(=O)[nH][nH]c3c2)s1	< 1000
O=c1[nH][nH]c2cc(Nc3nc(Cl)nc(Nc4cc(C5CC5)[nH]n4)n3)ccc12	< 1000
Cc1cc(Nc2nc(Sc3ccc4c(=O)[nH][nH]c4c3)nc3c(OCCCN(C)C)cccc23)n[nH]1	< 1000
CC(C)(C)OC(=O)n1[nH]c(=O)c2cc(Nc3nc(Nc4cc(C5CC5)[nH]n4)c4ccccc4n3)ccc21	< 1000
O=c1[nH][nH]c2ccc(-c3nnc(C4CCCCC4)c(Nc4n[nH]c5ccc(F)cc45)n3)c(C(F)(F)F)c12	< 1000
O=c1[nH][nH]c2cc(OC3COCC(Nc4ccccn4)C3)ccc12 (stereo unspecified)	< 1000

SMILES	Ki [nM]
Cn1cnc(NCCC(Cc2ccccc2)Nc2ccc3c(=O)[nH][nH]c3c2)c1 (stereo unspecified)	< 1000
O=c1[nH][nH]c2cc(CCCC(Nc3ccccn3)c3ccccc3)ccc12 (stereo unspecified)	< 1000
O=c1[nH][nH]c2ccc(-c3nc4c(c(Nc5n[nH]c6ccc(F)cc56)n3)CN(Cc3ccccc3)CC4)c(C(F)(F)F)c12	< 1000
O=C(CC(=O)Oc1ccc2c(=O)[nH][nH]c2c1)Nc1ccccn1	< 1000
O=c1[nH][nH]c2cc(Nc3cc(Nc4cc(C5CC5)[nH]n4)ncn3)ccc12	< 1000
Cc1cc(Nc2nc(Cc3ccc4c(=O)[nH][nH]c4c3)nc3c2CCCC3)n[nH]1	< 1000
COCc1cc(Nc2nc(-c3ccc4[nH][nH]c(=O)c4c3C(F)(F)F)nc3ccccc23)n[nH]1	< 1000
O=c1[nH][nH]c2cc(Nc3ncc([N+](=O)[O-])c(Nc4cc(C5CC5)[nH]n4)n3)ccc12	< 1000
O=c1[nH][nH]c2cc(OC3CCC(Nc4nccnn4)C3)ccc12 (stereo unspecified)	< 1000
Cc1cc(Nc2nc(Nc3ccc4c(=O)[nH][nH]c4c3)nc3c2CCNC3)n[nH]1	< 1000
Cc1cc(Nc2nc(Sc3ccc4c(=O)[nH][nH]c4c3)nc3cc([N+](=O)[O-])ccc23)n[nH]1	< 1000
O=c1[nH][nH]c2cc(Sc3nc(Nc4cc(C5CC5)[nH]n4)c4cccc(F)c4n3)ccc12	< 1000
Cn1cnc(NC(=O)CCNc2ccc3c(=O)[nH][nH]c3c2)c1	< 1000
Cc1nc(Oc2ccc3c(=O)[nH][nH]c3c2)nc(Nc2cc(C3CC3)[nH]n2)c1C	< 1000
Cc1cc(Nc2nc(-c3ccc4[nH][nH]c(=O)c4c3)nc3cc(-n4cccc4)ccc23)n[nH]1	< 1000
Cc1cc(Nc2cc(C3CC3)[nH]n2)nc(Sc2ccc3c(=O)[nH][nH]c3c2)n1	< 1000
O=c1[nH][nH]c2cc(C(F)(F)F)c(-c3cc(N4CCCCC4)cc(Nc4n[nH]c5ccccc45)n3)cc12	< 1000
O=c1[nH][nH]c2cc(OC(CCNc3ccccn3)Cc3ccccc3)ccc12 (stereo unspecified)	< 1000
COc1c(-c2nc(Nc3cc(C)[nH]n3)c3ccccc3n2)ccc2[nH][nH]c(=O)c12	< 1000
CN(C)CCNC(=O)c1cc(Nc2n[nH]c3ccccc23)nc(Sc2ccc3c(=O)[nH][nH]c3c2)n1	< 1000
O=c1[nH][nH]c2ccc(-c3nc(Nc4n[nH]c5ccccc45)cc(Oc4ccccc4)n3)c(C(F)(F)F)c12	< 1000
Cc1cccc2nc(Nc3ccc4c(=O)[nH][nH]c4c3)nc(Nc3cc(C4CC4)[nH]n3)c12	< 1000
O=C(CCSc1ccc2c(=O)[nH][nH]c2c1)Nc1ccccn1	< 1000
O=C(CCOc1ccc2c(=O)[nH][nH]c2c1)Nc1ccccn1	< 1000

SMILES	Ki [nM]
NC(=O)c1cc(-c2ncnc(Nc3n[nH]c4c3CCC(=O)C4)n2)cc2c(=O)[nH][nH]c12	< 1000
O=c1[nH][nH]c2ccc(-c3nc(Nc4n[nH]c5ccccc45)cc(-c4ccccn4)n3)c(C(F)(F)F)c12	< 1000
O=c1[nH][nH]c2cc(Nc3nc(Nc4cc(C5CCC5)[nH]n4)c4ccccc4n3)ccc12	< 1000
O=c1[nH][nH]c2cc(Nc3nc(Nc4cc(C5CC5)[nH]n4)cc(-c4ccccc4)n3)ccc12	< 1000
O=c1[nH][nH]c2ccc(-c3nc(Nc4cc(C5CC5)[nH]n4)nc(-c4ccccc4)n3)cc12	< 1000
Cn1cnc(NCCC(=O)Oc2ccc3c(=O)[nH][nH]c3c2)c1	< 1000
Cc1cnc(NC2CCCC(Nc3ccc4c(=O)[nH][nH]c4c3)C2)s1 (stereo unspecified)	< 1000
O=c1[nH][nH]c2cc(Oc3cccc(Nc4n[nH]c5ccccc45)n3)ccc12	< 1000
O=c1[nH][nH]c2cc(OCCCNc3nccnn3)ccc12	< 1000
O=c1[nH][nH]c2ccc(-c3nc4c(c(Nc5n[nH]c(-c6cccnc6)n5)n3)CCCC4)c(C(F)(F)F)c12	< 1000
O=c1[nH][nH]c2cc(Nc3nc(Nc4ccc5c(=O)[nH][nH]c5c4)c4ccccc4n3)ccc12	< 1000
Cc1cnc(NC2COCC(C(C)(C)c3ccc4c(=O)[nH][nH]c4c3)C2)s1 (stereo unspecified)	< 1000
O=c1[nH][nH]c2ccc(C3CCC(Nc4ccccn4)C3)cc12 (stereo unspecified)	< 1000
Cn1cnc(NCCC(Cc2ccccc2)Cc2ccc3c(=O)[nH][nH]c3c2)c1 (stereo unspecified)	< 1000
Cn1cnc(NC2CCC(Nc3ccc4c(=O)[nH][nH]c4c3)C2)c1 (stereo unspecified)	< 1000
O=c1[nH][nH]c2cc(NCCCNc3ccccn3)ccc12	< 1000
Cc1cc(Nc2cc(NCCN(C)C)nc(Sc3ccc4c(=O)[nH][nH]c4c3)n2)n[nH]1	< 1000
O=c1[nH][nH]c2cc(Nc3cc(Nc4n[nH]c5ccccc45)ccn3)ccc12	< 1000
O=c1[nH][nH]c2cc(Cc3cc4ccccc4c(Nc4cc(C5CC5)[nH]n4)n3)ccc12	< 1000
O=c1[nH][nH]c2cc(NC3CCCC(Nc4ccccn4)C3)ccc12 (stereo unspecified)	< 1000
Cn1cnc(NC2CCCC(Nc3ccc4c(=O)[nH][nH]c4c3)C2)c1 (stereo unspecified)	< 1000
Cc1cc(Nc2nc(Sc3ccc4c(=O)[nH][nH]c4c3)nc3cc(OCCCN(C)C)ccc23)n[nH]1	< 1000
CN1CCN(C(=O)OCc2ccccc2)CC1c1cc(Nc2n[nH]c3ccccc23)nc(-c2ccc3[nH][nH]c(=O)c3c2C(F)(F)F)n1 (stereo unspecified)	< 1000
Cc1cc(Nc2nc(Nc3ccc4c(=O)[nH][nH]c4c3)nc3ccc(I)cc23)n[nH]1	< 1000
